Experimental data: ChEMBL document CHEMBL1201862, “PubChem BioAssay data set” (2004)
Calls of active or inactive are those of the source. For most assays here, no stated cut-off is given here; in the data, actives have a measured EC50 and inactives only a lower limit.

Legend:
[1] = target: T1, Corticotropin-releasing factor receptor 2/Corticotropin-releasing factor-binding protein (Homo sapiens, UniProt P24387+Q13324); experiment: activators of CRF receptor 2 with binding protein – uHTS hits, confirmation (AID 602473); assay type: functional; conditions: read-out: EC50_Mean
T1 sequence (Q13324 whole entry): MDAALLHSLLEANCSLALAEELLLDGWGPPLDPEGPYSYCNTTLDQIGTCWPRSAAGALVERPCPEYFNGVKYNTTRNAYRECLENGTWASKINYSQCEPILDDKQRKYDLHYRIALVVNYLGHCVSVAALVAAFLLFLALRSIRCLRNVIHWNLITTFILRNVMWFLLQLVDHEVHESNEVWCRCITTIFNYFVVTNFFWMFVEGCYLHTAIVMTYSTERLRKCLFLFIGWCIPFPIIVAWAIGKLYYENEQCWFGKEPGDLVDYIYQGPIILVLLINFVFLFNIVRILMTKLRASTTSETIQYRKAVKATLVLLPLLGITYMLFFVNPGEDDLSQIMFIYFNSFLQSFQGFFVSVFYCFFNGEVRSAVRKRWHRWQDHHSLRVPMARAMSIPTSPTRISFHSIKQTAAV
T1 sequence (P24387 whole entry): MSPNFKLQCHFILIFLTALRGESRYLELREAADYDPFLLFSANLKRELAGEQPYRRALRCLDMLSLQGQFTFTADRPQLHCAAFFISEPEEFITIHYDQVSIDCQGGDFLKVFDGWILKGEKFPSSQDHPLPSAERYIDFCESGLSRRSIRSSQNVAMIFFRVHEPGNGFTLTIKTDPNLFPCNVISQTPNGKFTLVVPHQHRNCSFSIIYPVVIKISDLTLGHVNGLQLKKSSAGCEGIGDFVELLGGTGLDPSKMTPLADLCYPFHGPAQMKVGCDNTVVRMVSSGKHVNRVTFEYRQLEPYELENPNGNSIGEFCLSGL

[2] = target: T1, Corticotropin-releasing factor receptor 2/Corticotropin-releasing factor-binding protein; experiment: Dose Response confirmation of uHTS hits for small molecule antagonists of the CRF-binding protein and CRF-R2 receptor complex.; assay type: functional; conditions: read-out: IC50_Mean
[3] = Luminescence Cell-Based Dose Confirmation HTS to Identify Inhibitors of Platelet Dense Granule Release. [Related pubchem assays: 1663 (Primary HTS), 1678 (Summary of Project)]; assay type: functional
[4] = target: Luciferin 4-monooxygenase (Photinus pyralis, UniProt P08659); experiment: inhibition of purified Photinus pyralis luciferase – biochemical, luminescence, dose response (AID 1891)
Luciferin 4-monooxygenase, sequence (P08659 whole entry): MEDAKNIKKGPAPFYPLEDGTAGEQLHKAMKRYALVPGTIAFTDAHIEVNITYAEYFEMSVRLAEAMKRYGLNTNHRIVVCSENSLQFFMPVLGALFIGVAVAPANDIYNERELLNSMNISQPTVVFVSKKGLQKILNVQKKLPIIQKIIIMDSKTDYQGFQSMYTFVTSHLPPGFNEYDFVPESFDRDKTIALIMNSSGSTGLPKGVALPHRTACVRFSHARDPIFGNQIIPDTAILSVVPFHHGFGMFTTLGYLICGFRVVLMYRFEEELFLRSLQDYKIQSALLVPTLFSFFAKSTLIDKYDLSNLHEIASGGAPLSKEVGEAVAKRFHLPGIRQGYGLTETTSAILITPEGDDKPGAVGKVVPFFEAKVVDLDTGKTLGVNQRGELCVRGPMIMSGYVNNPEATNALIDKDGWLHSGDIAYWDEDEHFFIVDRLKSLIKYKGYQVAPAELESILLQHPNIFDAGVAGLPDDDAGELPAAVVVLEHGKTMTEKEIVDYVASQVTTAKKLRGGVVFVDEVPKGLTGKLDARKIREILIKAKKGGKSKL

[5] = luciferase reporter signal suppression in cells – H4 neuroglioma cells, luminescence, dose response (AID 1990); assay type: functional, cell-based
[6] = alpha-synuclein stem-loop luciferase translation blockers – H4 neuroglioma cells, luminescence, confirmation (AID 1988); assay type: functional, cell-based
[7] = Luminescence Cell-Based Dose Response HTS to Identify Inhibitors of 5'UTR Stem-Loop Driven Prion Protein mRNA Translation in H4 Neuroglioblastoma Cells. [Related pubchem assays: 1827 (Project Summary), 1813 (Primary HTS)]; assay type: functional
[8] = fluconazole-exposed Candida albicans growth modulators – fluorescence, retest, confirmation (AID 2467); assay type: functional, cell-based
[9] = NIH-3T3 fibroblast cytotoxicity, dose response, cytotoxicity control, cell-based, fluorescence, Alamar Blue, secondary assay (AID 2327); assay type: functional;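 further: NIH-3T3 mouse fibroblasts cultured with fluconazole at 8 µg/mL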
[10] = target: T2, Ubiquitin-conjugating enzyme E2 N (Homo sapiens, UniProt P61088); assay type: functional;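 further: Dose-response confirmation in a TR-FRET assay detecting UBC13-driven polyubiquitin chain formation, inhibition measured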
T2 sequence (P61088 whole entry): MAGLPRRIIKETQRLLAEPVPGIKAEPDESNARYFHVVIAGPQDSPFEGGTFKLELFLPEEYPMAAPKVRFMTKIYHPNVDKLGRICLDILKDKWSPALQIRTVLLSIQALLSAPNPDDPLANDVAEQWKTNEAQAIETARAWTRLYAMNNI

[11] = Luminescence Cell-Based Dose Retest to Confirm Inhibitors of Cancer Stem Cells. [Related pubchem assays (depositor defined):AID2717, AID2721]; assay type: functional; conditions: Homo sapiens
[12] = NIH3T3 cell viability loss – ATP luminescence, mouse fibroblasts, counter-screen, dose response (AID 2010); assay type: functional, cell-based;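 further: cells exposed to compound for about 90 hours before reading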
[13] = Trypanosoma cruzi growth suppression in host cells – NIH3T3 host cells, beta-gal luminescence, confirmation (AID 2044); assay type: functional, cell-based;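 further: intracellular parasites grown in NIH/3T3 mouse fibroblasts as host cells; luminescent beta-galactosidase reporter signal from transgenic T. cruzi replicating inside host cells; inhibitors lower the luminescence signal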
Cytochrome P450 2D6 = Cytochrome P450 2D6 (Homo sapiens, UniProt P10635);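 further: CYP2D6 member of a cytochrome P450 panel assay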
Cytochrome P450 2D6, sequence (P10635 whole entry): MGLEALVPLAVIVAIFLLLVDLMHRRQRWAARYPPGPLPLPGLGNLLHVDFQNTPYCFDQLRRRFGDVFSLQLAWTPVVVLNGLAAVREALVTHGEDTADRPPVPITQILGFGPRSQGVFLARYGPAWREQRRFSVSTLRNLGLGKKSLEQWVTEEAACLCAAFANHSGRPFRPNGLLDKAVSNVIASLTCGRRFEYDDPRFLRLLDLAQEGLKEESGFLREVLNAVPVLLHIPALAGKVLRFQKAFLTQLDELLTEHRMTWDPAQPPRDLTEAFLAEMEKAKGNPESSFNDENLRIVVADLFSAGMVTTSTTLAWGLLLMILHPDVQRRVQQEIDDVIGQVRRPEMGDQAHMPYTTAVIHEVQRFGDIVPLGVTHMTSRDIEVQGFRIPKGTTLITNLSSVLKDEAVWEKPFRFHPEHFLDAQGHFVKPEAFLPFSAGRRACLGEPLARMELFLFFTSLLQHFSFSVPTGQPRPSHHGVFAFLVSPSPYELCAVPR

Cytochrome P450 1A2 = target: T3, Cytochrome P450 1A2 (Homo sapiens, UniProt P05177);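 further: PubChem cytochrome P450 panel assay, CYP1A2 panel member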
T3 sequence (P05177 whole entry): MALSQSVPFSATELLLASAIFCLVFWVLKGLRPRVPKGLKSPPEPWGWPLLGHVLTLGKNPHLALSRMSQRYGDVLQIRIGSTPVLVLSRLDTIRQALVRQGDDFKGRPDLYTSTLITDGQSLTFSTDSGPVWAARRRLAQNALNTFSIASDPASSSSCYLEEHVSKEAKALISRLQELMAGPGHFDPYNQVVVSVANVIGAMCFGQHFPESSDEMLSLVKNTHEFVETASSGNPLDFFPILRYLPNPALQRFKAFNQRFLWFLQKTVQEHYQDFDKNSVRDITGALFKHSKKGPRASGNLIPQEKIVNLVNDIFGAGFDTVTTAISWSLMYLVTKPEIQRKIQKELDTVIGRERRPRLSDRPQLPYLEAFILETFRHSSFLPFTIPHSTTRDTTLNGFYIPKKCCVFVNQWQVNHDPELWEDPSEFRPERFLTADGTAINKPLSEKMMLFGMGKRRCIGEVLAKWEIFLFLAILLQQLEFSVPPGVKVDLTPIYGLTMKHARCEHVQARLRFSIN

In the case of Cc1ccccc1-n1c(CSC(=N)N)nc2ccccc2c1=O, the EC50 [1] is reported as > 53 µM (inactive) and the IC50 [2] is reported as > 47.1 µM (inactive).

With CC(NCC(=O)Nc1ccccc1C(=O)NC1CC1)c1cccc(Cl)c1 (centres undefined) the EC50 [1] was > 53 µM (inactive) and the IC50 [2] was > 47.1 µM (inactive).

With CSc1ccccc1C(=O)Nc1ncc(C)s1 the EC50 [3] was 65.8 µM (active) and the EC50 [4] was > 112 µM (not active).

With CCNc1nc(Oc2ccc(C#N)cc2)cc(C(F)(F)F)n1 the EC50 [5] was 5.99 µM (active), the EC50 [6] was 11.7 µM (active) and the EC50 [7] was 16.8 µM (active).

For O=C(CC1(O)C(=O)Nc2ccccc21)c1ccccc1 (centres undefined), the EC50 [3] was > 112 µM (not active) and the EC50 [4] was > 112 µM (not active).

For O=C(Nc1cccc(O)c1)C(=O)Nc1ccccn1, the EC50 [3] was 1.82 µM (active) and the EC50 [4] was 7.77 µM (active).

For O=C(Nc1ccc(Cl)c(S(=O)(=O)N2CCOCC2)c1)c1ccccc1-c1ccc(C(F)(F)F)cc1, the EC50 [5] was 14.5 µM (active), the EC50 [6] was > 120 µM (not active) and the EC50 [7] was > 120 µM (not active).

For COc1ccc(-c2cc(C)no2)cc1S(=O)(=O)N(C)c1cccc(C)c1, the EC50 [8] was > 38 µM (not active) and the EC50 [9] was > 160 µM (inactive).

For CCCCc1ccc(/C=C(\C#N)C(N)=S)s1, the IC50 [10] was > 20 µM (inactive).

For Cc1ccc(N2CCN(C(=O)CN3C(=O)c4ccccc4C3=O)CC2)cc1, the EC50 [1] was > 53 µM (inactive) and the IC50 [2] was > 47.1 µM (inactive).

For COc1ccc(-c2cc(C(=O)N3CC4(C)CC3CC(C)(C)C4)no2)cc1OC (centres undefined), the AC50 [11] was 1.75 µM (active).

With Cc1c(NC2=C(Cl)C(=O)N(c3ccccc3Cl)C2=O)c(=O)n(-c2ccccc2)n1C the EC50 [1] was > 53 µM (inactive) and the IC50 [2] was > 47.1 µM (inactive).

For Clc1nc2ncnc-2c[nH]1, the EC50 [3] was > 112 µM (not active) and the EC50 [4] was > 112 µM (not active).

With Cc1ccc(CNC(=O)C2CCCN(c3nn4c(=O)cc(C)nc4s3)C2)cc1 (centres undefined) the EC50 [3] was > 112 µM (not active) and the EC50 [4] was > 112 µM (not active).

With O=C(NNc1ccc(Cl)cc1)c1cccs1 the AC50 [11] was 1.14 µM (active), the EC50 [8] was > 38 µM (not active) and the EC50 [9] was 2.56 µM (inconclusive).

For O=C(CN1CCN(c2ccccc2F)CC1)Nc1nnc(C(F)(F)F)s1, the EC50 [8] was 0.366 µM (active) and the EC50 [9] was > 150 µM (inactive).

In the case of CCOC(=O)C1CCN(C(=O)Cn2nc(C)n3c(cc4cc(F)ccc43)c2=O)CC1, the EC50 [3] is reported as 15.8 µM (active) and the EC50 [4] is reported as > 112 µM (not active).

With CCCn1c(=O)c(C(=O)NNS(=O)(=O)c2ccc(Cl)cc2)c(O)c2ccccc21 the AC50 [11] was 1.57 µM (active).

In the case of CN(C)c1ccc(/C=C(\Cl)c2nc3ccccc3s2)cc1, the AC50 [11] is reported as 1.58 µM (active).

In the case of COc1cccc(NC(=S)C(C#N)=C2N(C)c3ccccc3N2C)c1, the EC50 [1] is reported as > 53 µM (inactive) and the IC50 [2] is reported as > 47.1 µM (inactive).

With O=C(CCn1nnc2ccccc21)N1CCN(c2ccccc2)CC1 the EC50 [1] was > 53 µM (inactive) and the IC50 [2] was > 47.1 µM (inactive).

For CCOC(=O)C1CCCN(C(=O)CCNC(=O)Cn2ccc3ccccc3c2=O)C1 (centres undefined), the EC50 [5] was > 120 µM (not active), the EC50 [6] was > 120 µM (not active) and the EC50 [7] was 104 µM (active).

With COC(=O)COc1ccc(S(=O)(=O)NCc2cccnc2)cc1C the EC50 [3] was 34.3 µM (active) and the EC50 [4] was > 112 µM (not active).

With Cc1cccc(C(=O)Nc2ccc(C(=O)Nc3ccc(O)cc3)cc2)c1 the AC50 [11] was 2.09 µM (active).

For Cc1nc(N)sc1C(=O)NN, the IC50 [10] was > 20 µM (inactive).

With CC(C)(C)n1nc(-c2ccc(F)cc2)c2c(N)ncnc21 the EC50 [5] was 8.68 µM (active), the EC50 [12] was 7.86 µM (active) and the EC50 [6] was 20 µM (active). For the same molecule, the EC50 [13] was 0.316 µM (active).

With O=Nc1c(O)n(Cc2ccc(Cl)c(Cl)c2)c2ccccc12 the AC50 [11] was 5.78 µM (active), the EC50 [8] was 3.73 µM (active) and the AC50 (Cytochrome P450 2D6) was 28.2 µM (inconclusive). For the same molecule, the AC50 (Cytochrome P450 1A2) was 20 µM (inconclusive) and the EC50 [9] was 76.8 µM (active).

With O=C(CSc1nc[nH]n1)Nc1cc(S(=O)(=O)N2CCCC2)ccc1Cl the EC50 [1] was > 53 µM (inactive) and the IC50 [2] was > 47.1 µM (inactive).

In the case of CCCn1c(SCC#N)nc2c(c1=O)C1(CCCC1)Cc1ccccc1-2, the AC50 [11] is reported as 1.92 µM (active).

With COc1cccc(-c2nc3ccc(O)cc3c(=O)o2)c1 the EC50 [3] was 9.19 µM (active) and the EC50 [4] was 5.39 µM (active).

For COc1ccccc1NC(=O)Cc1c(F)cccc1Cl, the EC50 [3] was 70.8 µM (active) and the EC50 [4] was > 112 µM (not active).

For O=C(c1ccco1)N1CCN(C(=O)c2ccc(COc3ccc(F)cc3)o2)CC1, the EC50 [3] was > 112 µM (not active) and the EC50 [4] was > 112 µM (not active).

With CCCCCCc1nnc(N)s1 the EC50 [5] was > 120 µM (not active), the EC50 [6] was > 120 µM (not active) and the EC50 [7] was > 120 µM (not active).

For CC(c1ccccc1)N1CCn2c(nc3cc(NS(C)(=O)=O)ccc32)C1 (centres undefined), the EC50 [8] was > 38 µM (not active) and the EC50 [9] was > 160 µM (inconclusive).

For COc1ccc(-c2oc(=O)c3cc(OC)c(OC)cc3c2C#CC2(O)CCCCC2)cc1, the IC50 [10] was > 20 µM (inactive).

In the case of COc1cccc(CN(C)C(=O)c2cccc(S(=O)(=O)N3CCN(c4ccccc4)CC3)c2)c1OC, the EC50 [1] is reported as > 53 µM (inactive) and the IC50 [2] is reported as > 47.1 µM (inactive).

In the case of CCCn1cc(S(=O)(=O)c2ccccc2)c(=O)c2cc(OCC)ccc21, the EC50 [1] is reported as > 53 µM (inactive) and the IC50 [2] is reported as > 47.1 µM (inactive).

With CCn1c(SCC(=O)NC2CC2)nnc1-c1ccncc1 the EC50 [1] was > 53 µM (inactive) and the IC50 [2] was > 47.1 µM (inactive).

In the case of N#CCC(=O)N/N=C/c1cn(Cc2cccc3ccccc23)c2ccccc12, the EC50 [5] is reported as 14.9 µM (active), the EC50 [6] is reported as 8.59 µM (active) and the EC50 [7] is reported as > 120 µM (not active).

For COc1ccc(Cc2nnc(Nc3ccc(C)cc3)o2)cc1OC, the EC50 [5] was > 120 µM (not active), the EC50 [6] was 11.5 µM (active) and the EC50 [7] was > 120 µM (not active).

For Cc1cc(O)c(/C=N/Nc2ccc(F)cc2)c(=O)o1, the EC50 [9] was 9.97 µM (active).

For O=[N+]([O-])c1ccc(Cl)c(/C=N/n2c(S)nnc2C2CCCCC2)c1, the AC50 [11] was 36.1 µM (active).

In the case of COc1ccc(/C=N/OCC(=O)N2CC3(C)CC2CC(C)(C)C3)cc1 (centres undefined), the AC50 [11] is reported as 11.5 µM (active).

With COc1ccc(Br)cc1/C=N/n1c(C)nnc1C the EC50 [3] was > 112 µM (not active) and the EC50 [4] was > 112 µM (not active).
